Square brackets hold non-standard residues; d marks the D form. Peptide text beside a SMILES is read from it. Phe(ol) = N[C@H](CO)Cc1ccccc1; Aib = CC(C)(N)C(=O)O
Tests used:
[1] = system: SH-SY5Y cells; experiment: Respirometry (oxygen consumption rate, Seahorse XF96) in frozen SH-SY5Y cells; assay type: cell-based, human; settings: MAS supplemented with 10 μg/mL Alamethicin and 100 μg/mL cytochrome c vs MAS alone; FIG. 8
Protocol: (§1) All procedures are performed at 4° C. All equipment, solutions, and consumables are pre-chilled. • 1. Re-suspend sample in 20 μL MAS buffer. Load 5 technical replicates of each condition. Leave at least 4 empty wells to determine background signal. • 2. To adhere mitochondrial particles to the bottom of the plate, centrifuge the loaded plate at 2,000×g for 5 min at 4° C. using plate carrier rotating buckets. […] After centrifugation, adjust the total volume of the wells to 150 uL by adding 130 uL MAS assay buffer per well. Supplement MAS buffer with 1-200 μg/mL cytochrome c and 1-500 μg/mL Alamethicin if maximal respiration is not reached on MAS alone. To avoid disrupting mitochondrial adherence to the bottom of the plate, add MAS using multichannel pipette pointed at a 45° angle to the top of well chamber, as instructed by the manufacturer. • 4. Incubate the plate at 37° C. in a non-CO2 incubator for 5 minutes. • 5. Insert plate into XF96 and begin assay protocol. Measure oxygen consumption rate (OCR) before and after every injection. Mix, wait, and measure times can vary between 1-7 minutes and 1-5 repetitions.
1. SH-SY5Y cells were cultured according to ATCC instructions. 2. When the cells reached 80% confluency, they were trypsinized, counted, spun down, washed in PBS, and frozen. 3. Cells were thawed on ice and re-suspended in MAS. 4. […]

[2] = system: frozen murine liver tissue homogenate; experiment: Respirometry (oxygen consumption rate, Seahorse XF96) in frozen murine liver homogenate; settings: MAS supplemented with 100 μg/mL cytochrome c vs MAS alone; NADH and TMPD/Ascorbate injections; FIG. 3
Protocol: as §1
1. Homogenate was prepared from previously frozen murine liver tissue in MAS using glass/Teflon dounce homogenizer. The preparation was centrifuged at 1,000×g for 5 minutes at 4° C. and the supernatant transferred to a new tube. 2. […]

Row | Molecule | respiration in frozen cultured human bone marrow neuroblastoma cell line [1] | respiration in frozen tissue homogenates [2]
1 | CC(=O)NC(C)(C)C(=O)N1CCC[C@H]1C(=O)NC(C)(C)C(=O)N[C@@H](C)C(=O)NC(C)(C)C(=O)N[C@@H](C)C(=O)N[C@@H](CCC(N)=O)C(=O)NC(C)(C)C(=O)N[C@H](C(=O)NC(C)(C)C(=O)NCC(=O)N[C@@H](CC(C)C)C(=O)NC(C)(C)C(=O)N1CCC[C@H]1C(=O)N[C@H](C(=O)NC(C)(C)C(=O)NC(C)(C)C(=O)N[C@@H](CCC(=O)O)C(=O)N[C@@H](CCC(N)=O)C(=O)N[C@H](CO)Cc1ccccc1)C(C)C)C(C)C [Alamethicin] (Ac-[Aib]P[Aib]A[Aib]AQ[Aib]V[Aib]GL[Aib]PV[Aib][Aib]EQ[Phe(ol)]) | Enhances Respiration | 
2 | cytochrome c |  | enhances respiration
